According to patent US7129213B2, “Tripeptides and tripeptide derivatives for the treatment of neurodegenerative diseases” (Neurotell AG, priority 2002, dated 2006):
Structures can show the parent of a compound that is named as a salt. Where a SMILES comes first, the peptide text is derived from it.

System: rats previously treated by vincristine
Assay: Vincristine model, sound avoidance conditioning (pole climbing test)
Assay type: in vivo, rat
Description: The rats were slightly anesthetized by ether, an incision was made into the skin of the skull, and the skull was pierced by means of a dental burr. A metal needle was stereotaxically directed to the lateral ventricle, and then fixed by means of dental cement. Every day of the experiment, the patency of the needle was controlled.
Three days after introducing the needle (recovery from the postoperative shock) the non-anesthetized animals were injected 5 μl of normal saline with vincristine in a dose of 5 μg/kg/day. […] This administration was repeated every day for a period of five days.
Three days after the last administration of vincristine, the animals were chloralized (360 mg/kg), and, starting at the external carotid artery, a permanent floating catheter was retrogradely introduced into a common carotid artery. This catheter left again on the top of the skull, and was fixed by means of dental cement. After two days the animals had recovered from the postoperative shock. […] The steady state was reached on Day 3 after the last administration, and the model was stable for a period of several months. Once this lapse of time passed, a second type of degeneration was observed that affects the white matter, and was certainly due to apoptosis phenomena).
Five days after the last administration of vincristine, the twenty rats were randomly divided into two groups of 10 animals each: • one group of 10 rats received an intracarotid injection of 1 ml/kg/day of normal saline (controls) for a period of 10 days. • one group of 10 rats received 20 mg/kg/day of HCl-Gly-Phe-ProNH2 dissolved in normal saline for a period of 10 days. The injections were given at 9.00 a.m.
During the last five days of treatment, the rats were placed under the common learning conditions of the three models between 10.00 a.m. and 11.00 a.m. (see below).
During the last five days of treatment, at 10.00 a.m. (1 hour after the administration of HCl-Gly-Phe-ProNH2), the animals were placed into a learning cage for sound avoidance conditioning (Conditioning avoidance response). The animals learned to climb a pole first to escape from and then to avoid an electric shock. This method was standardized and quantified in our laboratory (see Le Poncin M., Lafitte J. C., Rapin J. R., Sound Avoidance Conditioning and a Mathematical approach to the description of acquisition performance, Math. Biosciences 59 (1982) 242–268).
For a period of five days, the animals were placed everyday under these learning conditions for a total of ten tests a day. Results are expressed as percentage of adequate responses, and the kinetics of the responses is represented by a multi-exponential maximum curve.
The curve maximum represents the learning capacities. The slope of the curve evaluates the learning speed. The area under the curve (AUC) represents a good evaluation of all conditioning parameters. The maximum value of the area under the curve is 500, if the animals show 100% adequate responses as early as Day 0. In fact, an average area under the curve is calculated per day, what amounts to a maximum value of 100. In the absolute control animals, this average area under the curve is equal to 40+/−4.

NCC(=O)N[C@@H](Cc1ccccc1)C(=O)N1CCC[C@H]1C(N)=O [HCl-Gly-Phe-ProNH2, glycyl-L-phenylalanyl-L-prolineamide] (H-Gly-Phe-Pro-NH2)
percentage of adequate responses D0 (vincristine 5 μg/kg/day ICV 5 days, 20 mg/kg/day intracarotid 10 days, learning day D0): 0% | AUC (average area under the learning curve per day) (vincristine model, 20 mg/kg/day 10 days): **24.8 +/− 3.2 | percentage of adequate responses D1 (vincristine model, 20 mg/kg/day 10 days, learning day D1): 5 +/− 2% | percentage of adequate responses D2 (vincristine model, 20 mg/kg/day 10 days, learning day D2): **20 +/− 4% | percentage of adequate responses D3 (vincristine model, 20 mg/kg/day 10 days, learning day D3): **40 +/− 5% | percentage of adequate responses D4 (vincristine model, 20 mg/kg/day 10 days, learning day D4): **59 +/− 6% | effect on learning parameters (vincristine model, intracarotid injection treatment): partly restores the learning parameters
